Laboratory results as given in patent US4015974A, “Amido phosphorothiolates” (priority 1972, dated 1977).

How the values were obtained:
Assay type in all cases: in vivo
[1] = test system: redroot pigweed (Amaranthus retroflexus); assay: Pre-emergence application, herbicidal effect on redroot pigweed (Table 1); set-up: key: 0: not damaged; 5: completely killed; conditions: 20 days after application, score 0-5
How it was run: (§1)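 Soil treatment after sowing, pre-emergence; wettable powder formulations diluted with water. Greenhouse, 20 d. Score 0 = no damage, 5 = complete kill.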

[2] = test system: barnyard grass (Echinochloa crus-galli); assay: Water application, herbicidal effect on barnyard grass (Table 2); set-up: key: 0: not damaged; 5: completely killed; conditions: 25 days, score 0-5
How it was run: (§2)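 Paddy-soil pots flooded to paddy conditions; rice transplanted at 3-leaf stage, barnyard grass sown, broad-leaved weeds germinating spontaneously. Test compounds applied as wettable powder to soil under flooded water. Herbicidal effect and rice phytotoxicity scored 0–5 at 25 days after application.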

[3] = test system: common purslane (Portulaca oleracea); assay: Pre-emergence application, herbicidal effect on common purslane (Table 1); set-up: key: 0: not damaged; 5: completely killed; conditions: 20 days after application, score 0-5
How it was run: as §1

radish = assay: Pre-emergence application, herbicidal effect on radish (Table 1); set-up: key: 0: not damaged; 5: completely killed; conditions: 20 days after application, score 0-5
How it was run: as §1

rice = assay: Water application, phytotoxicity on rice (Table 2); set-up: key: 0: no effect; 1: very slightly affected; 2: slightly affected; 3: moderately affected; 4: considerably affected; 5: completely killed; conditions: 25 days, score 0-5
How it was run: as §2

[4] = test system: large crabgrass (Digitaria sanguinalis); assay: Pre-emergence application, herbicidal effect on large crabgrass (Table 1); set-up: key: 0: not damaged; 5: completely killed; conditions: 20 days after application, score 0-5
How it was run: as §1

[5] = test system: broad-leaved weeds, e.g., monochoria, false pimpernel and toothcup; assay: Water application, herbicidal effect on broad-leaved weeds (Table 2); set-up: key: 0: not damaged; 5: completely killed; conditions: 25 days, score 0-5
How it was run: as §2

[6] = test system: common lambsquarter (Chenopodium album); assay: Pre-emergence application, herbicidal effect on common lambsquarter (Table 1); set-up: key: 0: not damaged; 5: completely killed; conditions: 20 days after application, score 0-5
How it was run: as §1

[7] = test system: barnyard grass (Echinochloa crus-galli); assay: Pre-emergence application, herbicidal effect on barnyard grass (Table 1); set-up: key: 0: not damaged; 5: completely killed; conditions: 20 days after application, score 0-5
How it was run: as §1

Row | Compound | Herbicidal effect, redroot pigweed ([1]; 10 g./a.) | Herbicidal effect, redroot pigweed ([1]; 20 g./a.) | Herbicidal effect, redroot pigweed ([1]; 40 g./a.) | Herbicidal effects, barnyard grass ([2]; 10 g/a) | Herbicidal effects, barnyard grass ([2]; 20 g/a) | Herbicidal effects, barnyard grass ([2]; 40 g/a) | Herbicidal effect, common purslane ([3]; 10 g./a.) | Herbicidal effect, common purslane ([3]; 20 g./a.) | Herbicidal effect, common purslane ([3]; 40 g./a.) | Herbicidal effect, radish (radish; 10 g./a.) | Herbicidal effect, radish (radish; 20 g./a.) | Herbicidal effect, radish (radish; 40 g./a.) | Phytotoxicity on rice (rice; 10 g/a) | Phytotoxicity on rice (rice; 20 g/a) | Phytotoxicity on rice (rice; 40 g/a) | Herbicidal effect, large crabgrass ([4]; 10 g./a.) | Herbicidal effect, large crabgrass ([4]; 20 g./a.) | Herbicidal effect, large crabgrass ([4]; 40 g./a.) | Herbicidal effects, broad-leaved weeds ([5]; 10 g/a) | Herbicidal effects, broad-leaved weeds ([5]; 20 g/a) | other results
1 | CCOP(=O)(SC)SCC(=O)N1CCCCC1CC (stereo not drawn) [Compound 74] | 5 | 5 | 5 | 5 | 5 | 5 | 5 | 5 | 5 | 0 | 1 | 2 | 0 | 0 | 0 | 5 | 5 | 5 | 5 | 5 | Herbicidal effects, broad-leaved weeds ([5]; 40 g/a): 5; Herbicidal effect, common lambsquarter ([6]; 10 g./a.): 5; Herbicidal effect, common lambsquarter ([6]; 20 g./a.): 5; Herbicidal effect, common lambsquarter ([6]; 40 g./a.): 5; Herbicidal effect, barnyard grass ([7]; 10 g./a.): 5; Herbicidal effect, barnyard grass ([7]; 20 g./a.): 5; Herbicidal effect, barnyard grass ([7]; 40 g./a.): 5
2 | CCCCCSP(=O)(OCCCC)SCC(=O)N1CCCCC1CC (stereo not drawn) [Compound 98] | 4 | 5 | 5 | 5 | 5 | 5 | 4 | 5 | 5 | 0 | 0 | 0 | 0 | 0 | 0 | 5 | 5 | 5 | 5 | 5 | Herbicidal effects, broad-leaved weeds ([5]; 40 g/a): 5; Herbicidal effect, common lambsquarter ([6]; 10 g./a.): 5; Herbicidal effect, common lambsquarter ([6]; 20 g./a.): 5; Herbicidal effect, common lambsquarter ([6]; 40 g./a.): 5; Herbicidal effect, barnyard grass ([7]; 10 g./a.): 5; Herbicidal effect, barnyard grass ([7]; 20 g./a.): 5; Herbicidal effect, barnyard grass ([7]; 40 g./a.): 5
3 | CCOP(=O)(SCC)SCC(=O)N1CCCC(C)C1 (stereo not drawn) [Compound 71] | 4 | 5 | 5 | 5 | 5 | 5 | 4 | 5 | 5 | 0 | 1 | 2 | 0 | 0 | 0 | 5 | 5 | 5 | 5 | 5 | Herbicidal effects, broad-leaved weeds ([5]; 40 g/a): 5; Herbicidal effect, common lambsquarter ([6]; 10 g./a.): 4; Herbicidal effect, common lambsquarter ([6]; 20 g./a.): 4; Herbicidal effect, common lambsquarter ([6]; 40 g./a.): 5; Herbicidal effect, barnyard grass ([7]; 10 g./a.): 5; Herbicidal effect, barnyard grass ([7]; 20 g./a.): 5; Herbicidal effect, barnyard grass ([7]; 40 g./a.): 5
